How the values were obtained:
[1] = xn = mol fraction of the nth substance listed; conditions: for surface tension liquid-gas: surface light scattering; for kinematic viscosity: 101 kPa, Liquid, Surface laser light scattering (SLLS)
[2] = for surface tension liquid-gas: surface light scattering; for kinematic viscosity: 101.33 kPa, Liquid, Surface laser light scattering (SLLS)

C=C(F)C(F)(F)F [2,3,3,3-tetrafluoro-1-propene] + FCF
[1]
Conditions | kinematic viscosity [m2/s] | surface tension liquid-gas [mN/m]
293.15 K, x2 = 0.7945 | 1.28e-07 | 7.04
293.16 K, x2 = 0.5193 | 1.31e-07 | 6.55
293.21 K, x2 = 0.6988 | 1.28e-07 | 6.9
303.14 K, x2 = 0.7945 | 1.18e-07 | 5.57
303.16 K, x2 = 0.5193 | 1.2e-07 | 5.29
303.2 K, x2 = 0.6988 | 1.19e-07 | 5.49
313.14 K, x2 = 0.5193 | 1.09e-07 | 4.1
313.21 K, x2 = 0.6988 | 1.09e-07 | 4.1
313.26 K, x2 = 0.7945 | 1.08e-07 | 4.14
323.17 K, x2 = 0.5193 | 1.01e-07 | 2.96
323.19 K, x2 = 0.6988 | 9.91e-08 | 2.82
323.2 K, x2 = 0.7945 | 9.82e-08 | 2.83
333.14 K, x2 = 0.5193 | 9.15e-08 | 1.91
333.21 K, x2 = 0.6988 | 8.98e-08 | 1.66
333.21 K, x2 = 0.7945 | 8.85e-08 | 1.62
343.14 K, x2 = 0.5193 | 8.18e-08 | 0.97
343.16 K, x2 = 0.6988 | 7.93e-08 | 0.66
343.18 K, x2 = 0.7945 | 7.71e-08 | 0.59

FCF [difluoromethane]
[2]
Conditions | kinematic viscosity [m2/s] | surface tension liquid-gas [mN/m]
293.15 K | 1.29e-07 | 7.4
303.15 K | 1.17e-07 | 5.94
313.07 K | 1.08e-07 | 4.35
323.15 K | 9.98e-08 | 2.96
333.14 K | 9.3e-08 | 1.67
343.16 K | 7.95e-08 | 0.57
348.18 K | 7.5e-08 | 0.14

F/C=C/C(F)(F)F [trans-1,3,3,3-tetrafluoropropene] + FCF
[1]
Conditions | kinematic viscosity, x2 = 0.2985 [m2/s] | kinematic viscosity, x2 = 0.5697 [m2/s] | kinematic viscosity, x2 = 0.7501 [m2/s] | surface tension liquid-gas, x2 = 0.2985 [mN/m] | surface tension liquid-gas, x2 = 0.5697 [mN/m] | surface tension liquid-gas, x2 = 0.7501 [mN/m]
293.14 K | – | 1.47e-07 | 1.37e-07 | – | – | –
293.16 K | 1.61e-07 | – | – | 8.46 | 8.02 | 7.74
303.16 K | – | 1.34e-07 | 1.28e-07 | – | – | –
303.17 K | 1.43e-07 | – | – | 7.17 | 6.63 | 6.3
313.12 K | – | 1.22e-07 | 1.14e-07 | – | – | –
313.13 K | 1.32e-07 | – | – | 5.93 | 5.34 | 4.91
323.13 K | 1.23e-07 | – | – | 4.75 | 4.15 | 3.62
323.14 K | – | 1.13e-07 | 1.04e-07 | – | – | –
333.14 K | – | 1.03e-07 | 9.75e-08 | – | – | –
333.16 K | 1.11e-07 | – | – | 3.62 | 2.89 | 2.41
343.11 K | – | 9.31e-08 | 8.96e-08 | – | – | –
343.12 K | 1.02e-07 | – | – | 2.54 | 1.83 | 1.32
348.17 K | 9.63e-08 | – | – | 2.06 | 1.34 | 0.83
348.19 K | – | 8.74e-08 | 8.58e-08 | – | – | –
